The values that follow come from ChEMBL document CHEMBL3045652, “Biorational glycol diesters as dietary toxins versus bioefficacy of sucrose octanoate against lepidopteran larvae” (Ind Crops Prod, 2012).

The test system of experiment [1] is Spodoptera litura. Briefly: Antifeedant activity against third-instar larval stage of Spodoptera litura fed with artificial diet containing compound assessed as relative growth rate at 3.72 mg/ml after 3 days (reference value: 1.37 +/- 0.12 mg/mg/day). Format: functional.
For experiment [2], the system named is Spodoptera litura. The experiment is described as follows: Antifeedant activity against third-instar larval stage of Spodoptera litura fed with artificial diet containing compound assessed as relative consumption rate at 3.72 mg/ml after 3 days (reference value: 2.13 +/- 0.18 mg/mg/day). Format: functional.
The subject of experiment [3] is Spodoptera litura. The experiment is described as follows: Antifeedant activity against third-instar larval stage of Spodoptera litura fed with artificial diet containing compound assessed as efficiency index of ingested food at 3.72 mg/ml after 3 days (reference value: 64.5%). Format: functional.
For experiment [4], the system named is Spodoptera litura. Briefly: Insecticidal activity against second-instar larval stage of Spodoptera litura fed with artificial diet containing compound assessed as growth inhibition after 7 days. The experiment is classed as functional, organism-based. As to conditions: for EC50: 168 h.
Experiment [5] has as its system Spodoptera litura. Briefly: Insecticidal activity against second-instar larval stage of Spodoptera litura assessed as increase in mortality applied as spray at 1 to 10 mg/ml after 72 hr. Format: functional, organism-based.
In experiment [6] the test system is Helicoverpa armigera. The experiment is described as follows: Insecticidal activity against second-instar larval stage of Helicoverpa armigera assessed as increase in mortality applied as spray at 1 to 10 mg/ml after 72 hr. The experiment is classed as functional, organism-based.
Experiment [7] has as its system Helicoverpa armigera. The experiment is described as follows: Insecticidal activity against second-instar larval stage of Helicoverpa armigera fed with artificial diet containing compound assessed as mortality after 7 days. The experiment is classed as functional. As to conditions: 168 h.
Experiment [8] deals with Spodoptera litura. Briefly: Insecticidal activity against second-instar larval stage of Spodoptera litura fed with artificial diet containing compound assessed as mortality after 7 days. As to conditions: 168 h. The experiment is classed as functional.
The subject of experiment [9] is Helicoverpa armigera. The experiment is described as follows: Insecticidal activity against second-instar larval stage of Helicoverpa armigera fed with artificial diet containing compound assessed as growth inhibition after 7 days. The conditions noted are these: for EC50: 168 h. The experiment is classed as functional, organism-based.
Experiment [10] has as its system Helicoverpa armigera. The experiment is described as follows: Antifeedant activity against third-instar larval stage of Helicoverpa armigera fed with artificial diet containing compound assessed as efficiency index of ingested food at 6.02 mg/ml after 3 days (reference value: 52%). Format: functional.
The subject of experiment [11] is Helicoverpa armigera. Briefly: Antifeedant activity against third-instar larval stage of Helicoverpa armigera fed with artificial diet containing compound assessed as relative growth rate at 6.02 mg/ml after 3 days (reference value: 0.97 +/- 0.13 mg/mg/day). The experiment is classed as functional.
The test system of experiment [12] is Helicoverpa armigera. The experiment is described as follows: Antifeedant activity against third-instar larval stage of Helicoverpa armigera fed with artificial diet containing compound assessed as relative consumption rate at 6.02 mg/ml after 3 days (reference value: 1.88 +/- 0.14 mg/mg/day). Format: functional.
The subject of experiment [13] is Spodoptera litura. Briefly: Antifeedant activity against third-instar larval stage of Spodoptera litura fed with artificial diet containing compound assessed as relative growth rate at 3.98 mg/ml after 3 days (reference value: 1.37 +/- 0.12 mg/mg/day). Format: functional.
The subject of experiment [14] is Spodoptera litura. Briefly: Antifeedant activity against third-instar larval stage of Spodoptera litura fed with artificial diet containing compound assessed as relative consumption rate at 3.98 mg/ml after 3 days (reference value: 2.13 +/- 0.18 mg/mg/day). Format: functional.
Experiment [15] deals with Spodoptera litura. The experiment is described as follows: Antifeedant activity against third-instar larval stage of Spodoptera litura fed with artificial diet containing compound assessed as efficiency index of ingested food at 3.98 mg/ml after 3 days (reference value: 64.5%). The experiment is classed as functional.
In experiment [16] the test system is Helicoverpa armigera. The experiment is described as follows: Insecticidal activity against second-instar larval stage of Helicoverpa armigera assessed as mortality applied as spray after 72 hr. The experiment is classed as functional.
Experiment [17] relates to Spodoptera litura. The experiment is described as follows: Insecticidal activity against second-instar larval stage of Spodoptera litura assessed as mortality applied as spray after 72 hr. The experiment is classed as functional.
The subject of experiment [18] is Helicoverpa armigera. Briefly: Antifeedant activity against third-instar larval stage of Helicoverpa armigera fed with artificial diet containing compound assessed as efficiency index of ingested food at 3.94 mg/ml after 3 days (reference value: 52%). The experiment is classed as functional.
In experiment [19] the test system is Helicoverpa armigera. Briefly: Antifeedant activity against third-instar larval stage of Helicoverpa armigera fed with artificial diet containing compound assessed as relative growth rate at 3.94 mg/ml after 3 days (reference value: 0.97 +/- 0.13 mg/mg/day). The experiment is classed as functional.
Experiment [20] concerns Helicoverpa armigera. The experiment is described as follows: Antifeedant activity against third-instar larval stage of Helicoverpa armigera fed with artificial diet containing compound assessed as relative consumption rate at 3.94 mg/ml after 3 days (reference value: 1.88 +/- 0.14 mg/mg/day). Format: functional.

Converted amounts (≈) assume the structure as drawn. The source made the active and inactive calls. No cut-off for these calls is given here.

The EC50 is the concentration giving half of the maximal effect. The LC50 is the concentration that kills 50% of the test population.

For `CCCC(=O)OCCOC(=O)CCC` [ETHYLENE GLYCOL DIBUTANOATE], the Activity in the experiment on Spodoptera litura [1] was 0.74 mg/mg/day; with Spodoptera litura [2] it was 2.04 mg/mg/day; in the experiment with Helicoverpa armigera [11], 0.55 mg/mg/day; in the experiment on Helicoverpa armigera [12], 1.7 mg/mg/day. The values for the ECI with Spodoptera litura [3] and in the experiment on Helicoverpa armigera [10] were 2% and 32.4%, respectively. For the same molecule, the “growth inhibition (GI)” value with Spodoptera litura [4] and in the experiment with Helicoverpa armigera [9] was “Dose-dependent effect” each time. Besides, the EC50 was found to be 1850 µg/mL (≈ 9.15 mM) in the experiment with Spodoptera litura [4] and 2820 µg/mL (≈ 13.9 mM) in the experiment on Helicoverpa armigera [9]. Further, the result with Spodoptera litura [5] and in the experiment with Helicoverpa armigera [6] was Active. The LC50 in the experiment on Helicoverpa armigera [7] and with Spodoptera litura [8] was 2000 µg/mL (≈ 9.89 mM) each time.

Regarding `CCCCCCCC(=O)OCCOC(=O)CCCCCCC` [ETHYLENE GLYCOL DIOCTANOATE], the Activity in the experiment with Spodoptera litura [13] worked out at 0.72 mg/mg/day; with Spodoptera litura [14], 2 mg/mg/day; in the experiment on Helicoverpa armigera [19], 0.69 mg/mg/day; in the experiment on Helicoverpa armigera [20], 1.9 mg/mg/day. Besides, the ECI in the experiment on Spodoptera litura [15] turned out to be 8%; in the experiment with Helicoverpa armigera [18] it was 36.5%. Besides, the “growth inhibition (GI)” value with Spodoptera litura [4] and in the experiment with Helicoverpa armigera [9] was “Dose-dependent effect” throughout. Also, the EC50 with Spodoptera litura [4] is 1980 µg/mL (≈ 6.3 mM); in the experiment with Helicoverpa armigera [9], 2080 µg/mL (≈ 6.61 mM). Moreover, the LC50 with Helicoverpa armigera [16] was determined as 6500 µg/mL (≈ 20.7 mM); in the experiment on Spodoptera litura [17], 6100 µg/mL (≈ 19.4 mM); in the experiment on Helicoverpa armigera [7], 3140 µg/mL (≈ 9.99 mM); with Spodoptera litura [8], 2000 µg/mL (≈ 6.36 mM).
